Tests used:
Test in all cases: cell-based
Parameters in all cases: NanoBRET live-cell target engagement; % occupancy from displacement of tracer K10 on NanoLuc-kinase fusions, mean n=3
Details in all cases: HEK293, read-out: % inhibition
[1] = molecular target: CAMK2A (Homo sapiens, UniProt Q9UQM7)
Method in brief: (§1)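 Live-cell NanoBRET target engagement: cells expressing kinase–NanoLuc fusion with tracer treated with compound 2 h at 37 °C, 5% CO2. BRET read from donor (450 nm) and acceptor (610/630 nm) emission with 20 μM extracellular NanoLuc inhibitor; % occupancy calculated relative to tracer+DMSO and zero-BRET controls.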

[2] = molecular target: CDK14 (Homo sapiens, UniProt O94921)
Method in brief: as §1

[3] = molecular target: CDK6 (Homo sapiens, UniProt Q00534)
Chain of CDK6 (Q00534 whole entry): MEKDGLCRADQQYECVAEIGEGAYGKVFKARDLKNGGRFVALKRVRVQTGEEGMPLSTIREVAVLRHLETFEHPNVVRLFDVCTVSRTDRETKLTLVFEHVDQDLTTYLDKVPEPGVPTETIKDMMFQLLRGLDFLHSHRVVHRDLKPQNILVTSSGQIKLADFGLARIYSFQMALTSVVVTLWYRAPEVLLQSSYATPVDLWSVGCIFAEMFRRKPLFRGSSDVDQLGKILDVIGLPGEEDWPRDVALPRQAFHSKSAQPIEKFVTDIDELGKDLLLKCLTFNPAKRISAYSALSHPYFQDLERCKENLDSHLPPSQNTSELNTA
Method in brief: as §1

[4] = molecular target: CDKL3 (Homo sapiens, UniProt Q8IVW4)
Chain of CDKL3 (Q8IVW4 whole entry): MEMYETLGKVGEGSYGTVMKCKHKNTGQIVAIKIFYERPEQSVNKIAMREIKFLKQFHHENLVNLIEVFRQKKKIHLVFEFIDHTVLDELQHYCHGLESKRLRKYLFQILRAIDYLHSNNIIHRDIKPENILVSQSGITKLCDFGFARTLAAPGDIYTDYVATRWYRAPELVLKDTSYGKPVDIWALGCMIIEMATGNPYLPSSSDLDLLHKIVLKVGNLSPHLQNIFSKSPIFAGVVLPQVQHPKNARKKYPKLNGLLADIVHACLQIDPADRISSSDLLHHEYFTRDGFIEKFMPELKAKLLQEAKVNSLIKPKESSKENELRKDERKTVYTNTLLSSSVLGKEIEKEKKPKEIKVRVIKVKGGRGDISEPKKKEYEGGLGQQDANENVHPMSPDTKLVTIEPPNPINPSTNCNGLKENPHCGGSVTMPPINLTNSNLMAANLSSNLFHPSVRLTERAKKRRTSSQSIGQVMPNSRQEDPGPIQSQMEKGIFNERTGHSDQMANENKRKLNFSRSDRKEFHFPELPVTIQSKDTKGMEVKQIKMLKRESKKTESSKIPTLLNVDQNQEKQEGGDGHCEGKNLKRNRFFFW
Method in brief: as §1

[5] = molecular target: DAPK2 (Homo sapiens, UniProt Q9UIK4)
Method in brief: as §1

[6] = molecular target: ERN2 (Homo sapiens, UniProt Q76MJ5)
Method in brief: as §1

[7] = molecular target: IKBKE (Homo sapiens, UniProt Q14164)
Method in brief: as §1

[8] = molecular target: IRAK3 (Homo sapiens, UniProt Q9Y616)
Chain of IRAK3 (Q9Y616 whole entry): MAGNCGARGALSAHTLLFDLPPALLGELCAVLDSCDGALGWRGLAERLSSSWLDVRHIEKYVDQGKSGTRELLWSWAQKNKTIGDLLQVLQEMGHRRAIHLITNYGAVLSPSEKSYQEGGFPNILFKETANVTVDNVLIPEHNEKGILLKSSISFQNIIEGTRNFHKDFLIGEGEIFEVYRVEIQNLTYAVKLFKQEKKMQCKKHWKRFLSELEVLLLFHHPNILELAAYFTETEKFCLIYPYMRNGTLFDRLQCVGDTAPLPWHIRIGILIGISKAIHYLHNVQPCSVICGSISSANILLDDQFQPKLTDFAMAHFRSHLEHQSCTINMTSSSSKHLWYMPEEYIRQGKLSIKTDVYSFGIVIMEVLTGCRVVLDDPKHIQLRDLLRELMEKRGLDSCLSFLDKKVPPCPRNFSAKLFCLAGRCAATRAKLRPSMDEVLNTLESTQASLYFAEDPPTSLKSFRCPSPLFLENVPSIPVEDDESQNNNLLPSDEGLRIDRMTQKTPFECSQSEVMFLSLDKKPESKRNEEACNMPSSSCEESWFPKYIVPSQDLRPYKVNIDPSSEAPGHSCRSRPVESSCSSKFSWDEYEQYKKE
Method in brief: as §1

[9] = molecular target: LATS1 (Homo sapiens, UniProt O95835)
Method in brief: as §1

[10] = molecular target: LATS2 (Homo sapiens, UniProt Q9NRM7)
Chain of LATS2 (Q9NRM7 whole entry): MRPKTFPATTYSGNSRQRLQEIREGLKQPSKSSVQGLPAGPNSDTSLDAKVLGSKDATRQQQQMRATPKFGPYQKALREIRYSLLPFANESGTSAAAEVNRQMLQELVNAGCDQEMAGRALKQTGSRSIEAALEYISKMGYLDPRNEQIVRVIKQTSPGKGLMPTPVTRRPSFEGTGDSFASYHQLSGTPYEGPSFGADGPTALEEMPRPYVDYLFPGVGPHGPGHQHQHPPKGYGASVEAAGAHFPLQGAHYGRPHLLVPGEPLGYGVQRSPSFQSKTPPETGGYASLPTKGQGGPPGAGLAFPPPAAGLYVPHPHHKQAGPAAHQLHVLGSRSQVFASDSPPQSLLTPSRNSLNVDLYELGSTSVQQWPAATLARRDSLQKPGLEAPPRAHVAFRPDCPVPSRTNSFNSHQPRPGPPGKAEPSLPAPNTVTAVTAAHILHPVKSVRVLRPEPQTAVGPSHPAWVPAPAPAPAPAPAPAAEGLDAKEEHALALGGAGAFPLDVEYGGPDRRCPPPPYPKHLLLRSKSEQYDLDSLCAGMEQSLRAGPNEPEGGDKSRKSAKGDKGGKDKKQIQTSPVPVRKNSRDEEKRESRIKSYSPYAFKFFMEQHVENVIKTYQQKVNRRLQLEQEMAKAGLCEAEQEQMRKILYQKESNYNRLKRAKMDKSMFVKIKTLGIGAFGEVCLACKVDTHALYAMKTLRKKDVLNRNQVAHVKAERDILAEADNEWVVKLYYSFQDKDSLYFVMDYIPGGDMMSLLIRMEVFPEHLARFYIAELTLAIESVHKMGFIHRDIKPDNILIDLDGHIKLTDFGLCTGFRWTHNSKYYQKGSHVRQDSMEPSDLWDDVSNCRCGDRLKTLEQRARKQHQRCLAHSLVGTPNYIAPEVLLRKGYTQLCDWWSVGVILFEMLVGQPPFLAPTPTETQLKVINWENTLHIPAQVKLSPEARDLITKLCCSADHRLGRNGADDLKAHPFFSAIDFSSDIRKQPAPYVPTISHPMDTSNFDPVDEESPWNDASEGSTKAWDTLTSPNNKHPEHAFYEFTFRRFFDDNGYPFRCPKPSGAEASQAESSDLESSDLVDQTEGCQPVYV
Method in brief: as §1

[11] = molecular target: MAP4K1 (Homo sapiens, UniProt Q92918)
Method in brief: as §1

[12] = molecular target: MKNK2 (Homo sapiens, UniProt Q9HBH9)
Method in brief: as §1

[13] = molecular target: NEK2 (Homo sapiens, UniProt P51955)
Method in brief: as §1

[14] = molecular target: PAK6 (Homo sapiens, UniProt Q9NQU5)
Chain of PAK6 (Q9NQU5 whole entry): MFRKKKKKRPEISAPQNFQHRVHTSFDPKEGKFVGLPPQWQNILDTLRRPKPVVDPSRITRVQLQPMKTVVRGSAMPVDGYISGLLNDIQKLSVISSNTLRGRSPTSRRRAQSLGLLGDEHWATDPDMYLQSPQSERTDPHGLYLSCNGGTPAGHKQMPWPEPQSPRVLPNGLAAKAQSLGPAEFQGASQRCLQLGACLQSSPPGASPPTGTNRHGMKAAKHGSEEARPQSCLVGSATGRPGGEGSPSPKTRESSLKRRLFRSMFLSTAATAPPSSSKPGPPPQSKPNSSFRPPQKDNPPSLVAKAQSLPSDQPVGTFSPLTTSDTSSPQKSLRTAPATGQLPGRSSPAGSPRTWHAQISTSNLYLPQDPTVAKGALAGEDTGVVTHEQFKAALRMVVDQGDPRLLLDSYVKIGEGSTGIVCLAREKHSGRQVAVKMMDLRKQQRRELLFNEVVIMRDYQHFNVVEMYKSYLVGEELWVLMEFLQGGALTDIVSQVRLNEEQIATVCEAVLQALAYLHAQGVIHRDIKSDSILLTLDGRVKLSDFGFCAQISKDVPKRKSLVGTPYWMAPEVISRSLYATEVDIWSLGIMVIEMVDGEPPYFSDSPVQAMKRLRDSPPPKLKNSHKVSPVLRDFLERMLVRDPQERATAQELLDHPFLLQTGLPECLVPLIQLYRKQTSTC
Method in brief: as §1

[15] = molecular target: PLK4 (Homo sapiens, UniProt O00444)
Method in brief: as §1

[16] = molecular target: PRKX (Homo sapiens, UniProt P51817)
Method in brief: as §1

[17] = molecular target: SRMS (Homo sapiens, UniProt Q9H3Y6)
Chain of SRMS (Q9H3Y6 whole entry): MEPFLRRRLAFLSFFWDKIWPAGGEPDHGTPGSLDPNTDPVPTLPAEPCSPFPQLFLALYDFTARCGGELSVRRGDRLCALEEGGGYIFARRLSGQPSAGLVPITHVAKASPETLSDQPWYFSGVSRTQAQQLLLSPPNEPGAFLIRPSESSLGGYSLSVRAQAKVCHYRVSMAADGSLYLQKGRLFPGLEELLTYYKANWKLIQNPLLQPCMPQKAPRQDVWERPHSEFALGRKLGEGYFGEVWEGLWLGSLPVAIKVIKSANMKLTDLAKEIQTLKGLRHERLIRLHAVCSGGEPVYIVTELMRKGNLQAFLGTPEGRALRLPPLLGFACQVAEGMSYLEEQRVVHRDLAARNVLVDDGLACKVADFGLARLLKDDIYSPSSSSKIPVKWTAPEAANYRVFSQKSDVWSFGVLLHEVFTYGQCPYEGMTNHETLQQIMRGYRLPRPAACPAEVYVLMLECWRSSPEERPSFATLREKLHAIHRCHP
Method in brief: as §1

[18] = molecular target: TLK2 (Homo sapiens, UniProt Q86UE8)
Chain of TLK2 (Q86UE8 whole entry): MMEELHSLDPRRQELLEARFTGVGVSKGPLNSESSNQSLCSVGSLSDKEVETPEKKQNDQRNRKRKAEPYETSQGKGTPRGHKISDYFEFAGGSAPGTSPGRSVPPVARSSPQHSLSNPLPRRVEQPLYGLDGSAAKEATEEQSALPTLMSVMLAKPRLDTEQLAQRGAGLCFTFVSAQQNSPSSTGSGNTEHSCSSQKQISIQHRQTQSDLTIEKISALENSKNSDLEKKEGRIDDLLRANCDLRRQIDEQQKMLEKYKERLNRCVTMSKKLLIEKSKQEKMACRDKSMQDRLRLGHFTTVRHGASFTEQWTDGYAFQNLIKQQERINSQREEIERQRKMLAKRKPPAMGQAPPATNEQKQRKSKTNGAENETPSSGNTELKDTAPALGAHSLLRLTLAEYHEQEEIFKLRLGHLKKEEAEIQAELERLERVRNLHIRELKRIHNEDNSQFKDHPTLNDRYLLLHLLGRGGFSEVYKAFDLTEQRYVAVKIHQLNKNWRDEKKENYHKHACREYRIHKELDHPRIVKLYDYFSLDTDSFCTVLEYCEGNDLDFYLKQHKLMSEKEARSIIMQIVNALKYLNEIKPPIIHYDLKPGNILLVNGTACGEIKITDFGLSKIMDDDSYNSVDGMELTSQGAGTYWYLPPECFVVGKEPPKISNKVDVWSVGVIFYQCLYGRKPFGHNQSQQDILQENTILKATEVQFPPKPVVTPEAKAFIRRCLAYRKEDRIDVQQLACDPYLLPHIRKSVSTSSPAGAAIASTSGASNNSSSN
Method in brief: as §1

Chain of CAMK2A (Q9UQM7 whole entry, the tested form may be a part): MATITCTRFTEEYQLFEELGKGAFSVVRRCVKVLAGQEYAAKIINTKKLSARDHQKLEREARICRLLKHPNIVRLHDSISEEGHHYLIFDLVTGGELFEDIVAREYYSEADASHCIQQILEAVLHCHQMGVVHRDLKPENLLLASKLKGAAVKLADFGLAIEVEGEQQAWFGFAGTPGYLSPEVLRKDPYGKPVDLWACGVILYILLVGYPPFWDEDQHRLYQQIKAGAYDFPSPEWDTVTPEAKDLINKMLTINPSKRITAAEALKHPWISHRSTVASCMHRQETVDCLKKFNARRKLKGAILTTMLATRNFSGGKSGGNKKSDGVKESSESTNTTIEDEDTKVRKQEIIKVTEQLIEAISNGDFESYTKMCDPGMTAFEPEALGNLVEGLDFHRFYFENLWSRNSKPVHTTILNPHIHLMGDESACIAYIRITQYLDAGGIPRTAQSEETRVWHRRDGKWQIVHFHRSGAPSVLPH

inhibition at 1 µM [1]: 3%
inhibition at 1 µM [2]: 0%
inhibition at 1 µM [3]: 0%
inhibition at 1 µM [4]: 8%
inhibition at 1 µM [5]: 3%
inhibition at 1 µM [6]: -9%
inhibition at 1 µM [7]: 21%
inhibition at 1 µM [8]: 42%
inhibition at 1 µM [9]: -10%
inhibition at 1 µM [10]: -10%
inhibition at 1 µM [11]: 14%
inhibition at 1 µM [12]: 1%
inhibition at 1 µM [13]: 6%
inhibition at 1 µM [14]: -7%
inhibition at 1 µM [15]: 4%
inhibition at 1 µM [16]: -14%
inhibition at 1 µM [17]: 0%
inhibition at 1 µM [18]: 0%
Structure (SMILES): C[C@@H](Oc1cc(-c2cnn(C3CCNCC3)c2)cnc1N)c1c(Cl)ccc(F)c1Cl [crizotinib]

— PMC8449129, “Single tracer-based protocol for broad-spectrum kinase profiling in live cells with NanoBRET” (STAR Protocols, 2021)
